Experimental data as given in ChEMBL document CHEMBL5247616, “Discovery of a NADPH oxidase inhibitor, (E)-3-cyclohexyl-5-(4-((2-hydroxyethyl)(methyl)amino)benzylidene)-1-methyl-2-thioxoimidazolidin-4-oneone, as a novel therapeutic for Parkinson's disease” (Eur J Med Chem, 2022).
Activity calls are given as the source filed them. No cut-off for these calls is given here.

Legend:
[1] = Metabolic stability in human liver microsomes assessed as parent compound remaining preincubated for 5 mins followed by NADPH addition and measured after 30 mins by LC-MS/MS analysis; type: ADME, Microsome; conditions: read-out: Stability
[2] = Permeability coefficient of the compound across blood brain barrier at pH 7.4 incubated for 4 hrs by PAMPA assay; type: ADME; conditions: read-out: permeability
[3] = C0 in rat plasma at 2 mg/kg, iv measured after 24 hrs by HPLC-UV method; type: ADME, organism-based
[4] = Cmax in rat plasma at 10 mg/kg, po measured after 24 hrs by HPLC-UV method; type: ADME, organism-based; parameters: time 24 hrs, dose 10 mg/kg, route po
[5] = Cmax in rat plasma at 20 mg/kg, po measured after 24 hrs by HPLC-UV method; type: ADME, organism-based; parameters: time 24 hrs, dose 20 mg/kg, route po
[6] = Elimination half life in rat at 2 mg/kg, iv measured after 24 hrs by HPLC-UV method; type: ADME, organism-based; conditions: in vivo, read-out: beta t1/2 (converted)
[7] = Elimination half life in rat at 10 mg/kg, po measured after 24 hrs by HPLC-UV method; type: ADME, organism-based; conditions: in vivo, read-out: beta t1/2 (converted)
[8] = Elimination half life in rat at 20 mg/kg, po measured after 24 hrs by HPLC-UV method; type: ADME, organism-based; conditions: in vivo, read-out: beta t1/2 (converted)
[9] = Tmax in rat at 10 mg/kg, po measured after 24 hrs by HPLC-UV method; type: ADME, organism-based; conditions: in vivo
[10] = Tmax in rat at 20 mg/kg, po measured after 24 hrs by HPLC-UV method; type: ADME, organism-based; conditions: in vivo
[11] = AUClast in rat at 2 mg/kg, iv measured after 24 hrs by HPLC-UV method; type: ADME, organism-based; parameters: time 24 hrs, dose 2 mg/kg, route iv; conditions: in vivo
[12] = AUClast in rat at 10 mg/kg, po measured after 24 hrs by HPLC-UV method; type: ADME, organism-based; parameters: dose 10 mg/kg, time 24 hrs, route po; conditions: in vivo
[13] = AUClast in rat at 20 mg/kg, po measured after 24 hrs by HPLC-UV method; type: ADME, organism-based; parameters: dose 20 mg/kg, time 24 hrs, route po; conditions: in vivo
[14] = Elimination rate constant in rat at 2 mg/kg, iv measured after 24 hrs by HPLC-UV method; type: ADME, organism-based; conditions: in vivo, read-out: Ke (converted)
[15] = Elimination rate constant in rat at 10 mg/kg, po measured after 24 hrs by HPLC-UV method; type: ADME, organism-based; conditions: in vivo, read-out: Ke (converted)
[16] = Elimination rate constant in rat at 20 mg/kg, po measured after 24 hrs by HPLC-UV method; type: ADME, organism-based; conditions: in vivo, read-out: Ke (converted)
[17] = Volume of distribution in rat at 2 mg/kg, iv measured after 24 hrs by HPLC-UV method; type: ADME, organism-based; conditions: in vivo
[18] = Apparent volume of distribution in rat at 10 mg/kg, po measured after 24 hrs by HPLC-UV method; type: ADME, organism-based; conditions: in vivo
[19] = Apparent volume of distribution in rat at 20 mg/kg, po measured after 24 hrs by HPLC-UV method; type: ADME, organism-based; conditions: in vivo
[20] = Clearance in rat at 2 mg/kg, iv measured after 24 hrs by HPLC-UV method; type: ADME, organism-based; conditions: in vivo
[21] = Dose normalized clearance in rat at 10 mg/kg, po measured after 24 hrs by HPLC-UV method; type: ADME, organism-based; conditions: in vivo, read-out: Dose normalized clearance (converted)
[22] = Dose normalized clearance in rat at 20 mg/kg, po measured after 24 hrs by HPLC-UV method; type: ADME, organism-based; conditions: in vivo
[23] = Oral bioavailability in rat at 10 mg/kg measured after 24 hrs by HPLC-UV method; type: ADME, organism-based; conditions: in vivo
[24] = Oral bioavailability in rat at 20 mg/kg measured after 24 hrs by HPLC-UV method; type: ADME, organism-based; conditions: in vivo
[25] = Toxicity in male ICR mouse assessed as survival rate at 1000 mg/kg, po administered as single dose for 14 days; type: organism-based; conditions: in vivo, time 14 day
[26] = Toxicity in male ICR mouse assessed as survival rate at 300 mg/kg, iv administered as single dose for 14 days; type: organism-based; conditions: in vivo, time 14 day
[27] = Toxicity in male ICR mouse assessed as survival rate at 300 mg/kg, po administered as single dose for 14 days; type: organism-based; conditions: in vivo, time 14 day
[28] = Toxicity in male ICR mouse assessed as survival rate at 100 mg/kg, iv administered as single dose for 14 days; type: organism-based; conditions: in vivo, time 14 day
[29] = Toxicity in male ICR mouse assessed as survival rate at 100 mg/kg, po administered as single dose for 14 days; type: organism-based; conditions: in vivo, time 14 day
[30] = Toxicity in male ICR mouse assessed as survival rate at 30 mg/kg, iv administered as single dose for 14 days; type: organism-based; conditions: in vivo, time 14 day
[31] = Toxicity in male ICR mouse assessed as survival rate at 10 mg/kg, iv administered as single dose for 14 days; type: organism-based; conditions: in vivo, time 14 day
[32] = Toxicity in female ICR mouse assessed as survival rate at 1000 mg/kg, po administered as single dose for 14 days; type: organism-based; conditions: in vivo, time 14 day
[33] = Toxicity in female ICR mouse assessed as survival rate at 300 mg/kg, iv administered as single dose for 14 days; type: organism-based; conditions: in vivo, time 14 day
[34] = Toxicity in female ICR mouse assessed as survival rate at 300 mg/kg, po administered as single dose for 14 days; type: organism-based; conditions: in vivo, time 14 day
[35] = Toxicity in female ICR mouse assessed as survival rate at 100 mg/kg, iv administered as single dose for 14 days; type: organism-based; conditions: in vivo, time 14 day
[36] = Toxicity in female ICR mouse assessed as survival rate at 100 mg/kg, po administered as single dose for 14 days; type: organism-based; conditions: in vivo, time 14 day
[37] = Toxicity in female ICR mouse assessed as survival rate at 30 mg/kg, iv administered as single dose for 14 days; type: organism-based; conditions: in vivo, time 14 day
[38] = Toxicity in female ICR mouse assessed as survival rate at 10 mg/kg, iv administered as single dose for 14 days; type: organism-based; conditions: in vivo, time 14 day
BV-2 [39] = assay: Inhibition of LPS-induced ROS production in mouse BV-2 cells preincubated for 30 mins followed by LPS addition and measured at 10 sec interval for 15 mins by lucigenin based chemiluminescence assay; type: functional, cell-based; conditions: dose 1-10000 nM, time 45.0 min
BV-2 [40] = assay: Antiinflammatory activity in mouse BV-2 cells assessed as suppression of LPS-stimulated iNOS production at 10 uM measured after 24 hrs by qPCR analysis; type: functional, cell-based
BV-2 [41] = assay: Antiinflammatory activity in mouse BV-2 cells assessed as suppression of LPS-stimulated IL1beta production at 10 uM measured after 24 hrs by qPCR analysis; type: functional, cell-based
BV-2 [42] = assay: Antiinflammatory activity in mouse BV-2 cells assessed as suppression of LPS-stimulated TNFalpha production at 10 uM measured after 24 hrs by qPCR analysis; type: functional, cell-based
BV-2 [43] = assay: Inhibition of cell migration in LPS-induced mouse BV-2 cells at 10 uM incubated for 24 hrs by crystal violet staining based transwell assay; type: functional
Mus musculus [44] = assay: Antineuroinflammatory activity against MPTP induced parkinson's disease in C57BL/6 mouse model assessed as decrease in IbA1+ microglial cells in substantia nigra at 10 mg/kg, po administered for 8 days by immunohistochemistry analysis; type: functional, organism-based; conditions: time 8.0 day
Mus musculus [45] = assay: Antineuroinflammatory activity against MPTP induced parkinson's disease in C57BL/6 mouse model assessed as decrease in IbA1+ microglial cells in striatum at 10 mg/kg, po administered for 8 days by immunohistochemistry analysis; type: functional, organism-based; conditions: time 8.0 day
Mus musculus [46] = assay: Antineuroinflammatory activity against MPTP induced parkinson's disease in C57BL/6 mouse model assessed as […] tyrosine hydroxylase positive dopaminergic neuron in substantia nigra at 10 mg/kg, po administered for 8 days by immunohistochemistry analysis; type: functional, organism-based; conditions: time 8.0 day
Mus musculus [47] = assay: Antineuroinflammatory activity against MPTP induced parkinson's disease in C57BL/6 mouse model assessed as […] tyrosine hydroxylase positive dopaminergic neuron in striatum at 10 mg/kg, po administered for 8 days by immunohistochemistry analysis; type: functional, organism-based; conditions: time 8.0 day

`CN1C(=S)N(C2CCCCC2)C(=O)/C1=C\c1ccc(N(C)CCO)cc1` gave a remaining at 0.5 h [1] of 76.3%, a Papp at 4 h [2] of 13.6 ×10⁻⁶ cm/s and a C0 at 24 h [3] of 1700 ng/mL. It also gave a Cmax [4] of 609 ng/mL, a Cmax [5] of 783 ng/mL and a half-life [6] of 47.4 min. The half-life [7] was 301 min, the half-life [8] was 368 min and the Tmax [9] was 4.98 min. For the same compound, the Tmax [10] was 40.2 min, the AUC(0-t) at 24 h [11] was 468 ng·h/mL and the AUC(0-t) at 24 h [12] was 1310 ng·h/mL. For the same compound, the AUC(0-t) at 24 h [13] was 4160 ng·h/mL, the k el at 24 h [14] was 0.000367 s⁻¹ and the k el at 24 h [15] was 4.72e-05 s⁻¹. For the same compound, the k el at 24 h [16] was 4.42e-05 s⁻¹, the Vd [17] was 0.211 L and the Vd/F [18] was 1.99 L. The Vd/F [19] was 1.82 L, the clearance [20] was 3.62 mL/min and the CL/F [21] was 5.68 mL/min. The Dose normalized clearance [22] was 0.217 L/h, the bioavailability [23] was 56% and the bioavailability [24] was 88.9%. For the same compound, the survival at 336 h [25] was 100%, the survival at 336 h [26] was 100% and the survival at 336 h [27] was 100%. It also gave a survival at 336 h [28] of 100%, a survival at 336 h [29] of 100% and a survival at 336 h [30] of 100%. The survival at 336 h [31] was 100%, the survival at 336 h [32] was 100% and the survival at 336 h [33] was 100%. It also gave a survival at 336 h [34] of 100%, a survival at 336 h [35] of 100% and a survival at 336 h [36] of 100%. For the same compound, the survival at 336 h [37] was 100%, the survival at 336 h [38] was 100% and the inhibition (BV-2 [39]) was “Dose-Dependent Effect”. The Activity (BV-2 [40]) was “Active”, the Activity (BV-2 [41]) was “Active” and the Activity (BV-2 [42]) was “Active”. For the same compound, the inhibition (BV-2 [43]) was “Active”, the Activity (Mus musculus [44]) was “Active” and the Activity (Mus musculus [45]) was “Active”. The Activity (Mus musculus [46]) was “Active” and the Activity (Mus musculus [47]) was “Active”.
